# Test results from patent US7759345B2, “Antitumoral derivatives of ET-743” (priority 2001, dated 2010).
# Columns and labels:
# Type in all cases: cell-based
# A-549 = assay: Inhibition of cells growth by colorimetric assay (SRB), A-549; details: SRB, 48 hours exposure; for GI50 / LC50 (concentration for 50% cell killing): Homo sapiens, A549, 48 h; for A-549 TGI / GI50: A-549; for GI50: read-out: A-549 GI50; for LC50 (concentration for 50% cell killing): read-out: A-549 LC50, A-549
# Method in brief: (§1)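 Human cancer cells (5×10^3/well) attached 18 h in RPMI 1640 10% FBS, then exposed 48 h at 37°C to compounds from 10 to 10^−8 μg/ml in DMSO/EtOH/PBS. TCA-fixed, SRB-stained, OD read at 490 nm; GI, TGI and LC derived from triplicate wells.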
# K-562 = assay: Inhibition of cells growth by colorimetric assay (SRB), K-562; details: SRB, 48 hours exposure; for GI50 / LC50 (50% cell killing): Homo sapiens, K562, 48 h; for GI50 / K-562 TGI: K-562; for GI50: read-out: K-562 GI50; for LC50 (50% cell killing): read-out: K-562 LC50, K-562
# Protocol: (§2) 2°.—Inhibition of Cells Growth by Colorimetric Assay.
# (§3) A colorimetric type of assay, using sulforhodamine B (SRB) reaction has been adapted for a quantitative measurement of cell growth and viability [following the technique described by Philip Skehan, et al. (1990), New colorimetric cytotoxicity assay for anticancer drug screening, J. Natl. Cancer Inst., 82:1107-1112]
# (§4) This form of the assay employs 96 well cell culture microplates of 9 mm diameter (Faircloth, 1988; Mosmann, 1983). Most of the cell lines are obtained from American Type Culture Collection (ATCC) derived from different human cancer types.
# (§5) Cells are maintained in RPMI 1640 10% FBS, supplemented with 0.1 g/l penicillin and 0.1 g/l streptomycin sulfate and then incubated at 37° C., 5% CO2 and 98% humidity. For the experiments, cells were harvested from subconfluent cultures using trypsin and resuspended in fresh medium before plating.
# (§6) Cells are seeded in 96 well microtiter plates, at 5×10^3 cells per well in aliquots of 195 μl medium, and they are allowed to attach to the plate surface by growing in drug free medium for 18 hours. Afterward, samples are added in aliquots of 5 μl in a ranging from 10 to 10^−8 μg/ml, dissolved in DMSO/EtOH/PBS (0.5:0.5:99). After 48 hours exposure, the antitumor effect are measured by the SRB methodology: cells are fixed by adding 50 μl of cold 50% (wt/vol) trichloroacetic acid (TCA) and incubating for 60 minutes at 4° C. Plates are washed with deionized water and dried. One hundred μl of SRB solution (0.4% wt/vol in 1% acetic acid) is added to each microtiter well and incubated for 10 minutes at room temperature. Unbound SRB is removed by washing with 1% acetic acid. Plates are air dried and bound stain is solubilized with Tris buffer. Optical densities are read on a automated spectrophotometric plate reader at a single wavelength of 490 nm.
# (§7) The values for mean+/−SD of data from triplicate wells are calculated. Some parameters for cellular responses can be calculated: GI=growth inhibition, TGI=total growth inhibition (cytostatic effect) and LC=cell killing (cytotoxic effect).
# (§8) Obtained results may predict the usefulness of a certain drug as a potential cancer treatment. For this technique, compounds which show GI50 values smaller than 10 μg/ml are selected to continue with further studies. GI50's data allow to predict that not only could a drug be cystostatic, but also it could have a potential in terms of tumor reduction.
# DU-145 = assay: Inhibition of cells growth by colorimetric assay (SRB), DU-145; details: SRB, 48 hours exposure; for GI50 / CC50: Homo sapiens, DU-145, 48 h; for DU-145 TGI / GI50: DU-145; for GI50: read-out: DU-145 GI50; for CC50: read-out: DU-145 LC50, DU-145
# Protocol: as §2, §3, §4, §5, §6, §7, §8
# SK-MEL-28 = assay: Inhibition of cells growth by colorimetric assay (SRB), SK-MEL-28; details: SRB, 48 hours exposure; for GI50 / CC50: Homo sapiens, SK-MEL-28, 48 h; for GI50 / MEL-28 TGI: MEL-28; for GI50: read-out: MEL-28 GI50; for CC50: read-out: MEL-28 LC50, MEL-28
# Method in brief: as §1
# IGROV-1 = assay: Inhibition of cells growth by colorimetric assay (SRB), IGROV-1; details: SRB, 48 hours exposure; for GI50 / CC50: Homo sapiens, IGROV-1, 48 h; for GI50 / IGROV TGI: IGROV; for GI50: read-out: IGROV GI50; for CC50: read-out: IGROV LC50, IGROV
# Protocol: as §2, §3, §4, §5, §6, §7, §8
# SK-BR-3 = assay: Inhibition of cells growth by colorimetric assay (SRB), SK-BR-3; details: SRB, 48 hours exposure; for GI50 / CC50: Homo sapiens, SK-BR-3, 48 h; for GI50 / SK-BR3 TGI: SK-BR3; for GI50: read-out: SK-BR3 GI50; for CC50: read-out: SK-BR3 LC50, SK-BR3
# Protocol: as §2, §3, §4, §5, §6, §7, §8
# HT-29 = assay: Inhibition of cells growth by colorimetric assay (SRB), HT-29; details: SRB, 48 hours exposure; for GI50 / LC50 (concentration for 50% cell killing): Homo sapiens, HT-29, 48 h; for HT-29 TGI / GI50: HT-29; for GI50: read-out: HT-29 GI50; for LC50 (concentration for 50% cell killing): read-out: HT-29 LC50, HT-29
# Method in brief: as §1
# LNCaP = assay: Inhibition of cells growth by colorimetric assay (SRB), LNCaP; details: SRB, 48 hours exposure; for GI50 / CC50: Homo sapiens, LNCaP, 48 h; for GI50: read-out: LNCAP GI50, LNCAP; for CC50: read-out: LNCAP LC50, LNCAP
# Protocol: as §2, §3, §4, §5, §6, §7, §8
# LoVo = assay: Inhibition of cells growth by colorimetric assay (SRB), LoVo; details: SRB, 48 hours exposure; for GI50 / LC50 (concentration for 50% cell killing): Homo sapiens, LoVo, 48 h; for GI50 / LOVO TGI: LOVO; for GI50: read-out: LOVO GI50; for LC50 (concentration for 50% cell killing): read-out: LOVO LC50, LOVO
# Protocol: as §2, §3, §4, §5, §6, §7, §8
# SK-OV-3 = assay: Inhibition of cells growth by colorimetric assay (SRB), SK-OV-3; details: SRB, 48 hours exposure; for GI50 / LC50: Homo sapiens, SK-OV-3, 48 h; for GI50 / SK-OV3 TGI: SK-OV3; for GI50: read-out: SK-OV3 GI50; for LC50: read-out: SK-OV3 LC50, SK-OV3
# Protocol: as §2, §3, §4, §5, §6, §7, §8
# LoVo-Dox = assay: Inhibition of cells growth by colorimetric assay (SRB), LoVo-Dox; details: SRB, 48 hours exposure; for GI50 / CC50: Homo sapiens, 48 h; for GI50 / LOVO-DOX TGI: LOVO-DOX; for GI50: read-out: LOVO-DOX GI50; for CC50: read-out: LOVO-DOX LC50, LOVO-DOX
# Protocol: as §2, §3, §4, §5, §6, §7, §8
# PANC-1 = assay: Inhibition of cells growth by colorimetric assay (SRB), PANC-1; details: SRB, 48 hours exposure; for GI50 / LC50 (concentration for 50% net cell kill): Homo sapiens, PANC-1, 48 h; for GI50 / PANC-1 TGI: PANC-1; for GI50: read-out: PANC-1 GI50; for LC50 (concentration for 50% net cell kill): read-out: PANC-1 LC50, PANC-1
# Protocol: as §2, §3, §4, §5, §6, §7, §8
# IGROV-ET = assay: Inhibition of cells growth by colorimetric assay (SRB), IGROV-ET; details: SRB, 48 hours exposure; for GI50 / CC50: Homo sapiens, 48 h; for GI50 / IGROV-ET TGI: IGROV-ET; for GI50: read-out: IGROV-ET GI50; for CC50: read-out: IGROV-ET LC50, IGROV-ET
# Protocol: as §2, §3, §4, §5, §6, §7, §8
# HMEC1 = assay: Inhibition of cells growth by colorimetric assay (SRB), HMEC1; details: SRB, 48 hours exposure; for GI50 / LC50: Homo sapiens, HMEC-1, 48 h; for HMEC-1 TGI / GI50: HMEC-1; for GI50: read-out: HMEC-1 GI50; for LC50: read-out: HMEC-1 LC50, HMEC-1
# Protocol: as §2, §3, §4, §5, §6, §7, §8
compound,measurement,setting,value
C=COC(=O)N1CCc2cc(O)c(OC)cc2[C@@]12CS[C@@H]1c3c(OC(C)=O)c(C)c4c(c3[C@H](COC2=O)N2C1[C@H]1c3c(cc(C)c(OC)c3O)C[C@@H]([C@@H]2O)N1C)OCO4 (stereo partly drawn) [Compound 95],A-549 TGI,A-549,5.55E-08
same,GI50,A-549,26.8 nM
same,LC50 (concentration for 50% cell killing),A-549,147 nM
same,GI50,K-562,15.3 nM
same,LC50 (50% cell killing),K-562,2220 nM
same,K-562 TGI,K-562,5.30E-08
same,DU-145 TGI,DU-145,8.92E-08
same,GI50,DU-145,37.6 nM
same,CC50,DU-145,1010 nM
same,GI50,SK-MEL-28,25.2 nM
same,CC50,SK-MEL-28,83.2 nM
same,MEL-28 TGI,SK-MEL-28,4.58E-08
same,GI50,IGROV-1,28 nM
same,CC50,IGROV-1,1090 nM
same,IGROV TGI,IGROV-1,6.67E-08
same,GI50,SK-BR-3,29.8 nM
same,CC50,SK-BR-3,522 nM
same,SK-BR3 TGI,SK-BR-3,7.62E-08
same,HT-29 TGI,HT-29,1.27E-07
same,GI50,HT-29,40.4 nM
same,LC50 (concentration for 50% cell killing),HT-29,12000 nM
same,GI50,LNCaP,17.7 nM
same,CC50,LNCaP,66 nM
same,LNCAP TGI,LNCaP,3.41E-08
same,GI50,LoVo,26.2 nM
same,LC50 (concentration for 50% cell killing),LoVo,111 nM
same,LOVO TGI,LoVo,5.40E-08
same,GI50,SK-OV-3,28.1 nM
same,LC50,SK-OV-3,368 nM
same,SK-OV3 TGI,SK-OV-3,6.59E-08
same,GI50,LoVo-Dox,240 nM
same,CC50,LoVo-Dox,12000 nM
same,LOVO-DOX TGI,LoVo-Dox,8.68E-07
same,GI50,PANC-1,38.8 nM
same,LC50 (concentration for 50% net cell kill),PANC-1,1090 nM
same,PANC-1 TGI,PANC-1,1.08E-07
same,GI50,IGROV-ET,50.5 nM
same,CC50,IGROV-ET,12000 nM
same,IGROV-ET TGI,IGROV-ET,1.16E-07
same,HMEC-1 TGI,HMEC1,2.80E-08
same,GI50,HMEC1,9.36 nM
same,LC50,HMEC1,75.6 nM
C=COC(=O)Oc1cc2c(cc1OC)[C@@]1(CS[C@@H]3c4c(OC(C)=O)c(C)c5c(c4[C@H](COC1=O)N1C3[C@H]3c4c(cc(C)c(OC)c4O)C[C@@H]([C@@H]1O)N3C)OCO5)N(C(=O)OC=C)CC2 (stereo partly drawn) [Compound 100],A-549 TGI,A-549,6.20E-08
same,GI50,A-549,29.8 nM
same,LC50 (concentration for 50% cell killing),A-549,112 nM
same,GI50,K-562,36.4 nM
same,LC50 (50% cell killing),K-562,106 nM
same,K-562 TGI,K-562,6.20E-08
same,DU-145 TGI,DU-145,1.03E-07
same,GI50,DU-145,43.1 nM
same,CC50,DU-145,8320 nM
same,GI50,SK-MEL-28,26.5 nM
same,CC50,SK-MEL-28,95.9 nM
same,MEL-28 TGI,SK-MEL-28,5.04E-08
same,GI50,IGROV-1,35.1 nM
same,CC50,IGROV-1,915 nM
same,IGROV TGI,IGROV-1,6.54E-08
same,GI50,SK-BR-3,40.5 nM
same,CC50,SK-BR-3,1720 nM
same,SK-BR3 TGI,SK-BR-3,9.87E-08
same,HT-29 TGI,HT-29,8.07E-08
same,GI50,HT-29,35 nM
same,LC50 (concentration for 50% cell killing),HT-29,11100 nM
same,GI50,LNCaP,21.5 nM
same,CC50,LNCaP,66.5 nM
same,LNCAP TGI,LNCaP,3.79E-08
same,GI50,LoVo,24.4 nM
same,LC50 (concentration for 50% cell killing),LoVo,82.3 nM
same,LOVO TGI,LoVo,4.48E-08
same,GI50,SK-OV-3,28.2 nM
same,LC50,SK-OV-3,111 nM
same,SK-OV3 TGI,SK-OV-3,5.74E-08
same,GI50,LoVo-Dox,392 nM
same,CC50,LoVo-Dox,11100 nM
same,LOVO-DOX TGI,LoVo-Dox,2.73E-06
same,GI50,PANC-1,41.4 nM
same,LC50 (concentration for 50% net cell kill),PANC-1,8320 nM
same,PANC-1 TGI,PANC-1,1.14E-08
same,GI50,IGROV-ET,63.2 nM
same,CC50,IGROV-ET,11100 nM
same,IGROV-ET TGI,IGROV-ET,7.41E-07
same,HMEC-1 TGI,HMEC1,5.14E-08
same,GI50,HMEC1,27.5 nM
same,LC50,HMEC1,96.1 nM
